{
  "source": "paper PMC5863515",
  "about": "“Re-evaluation of Adrenocorticotropic Hormone and Melanocyte Stimulating Hormone Activation of GPR139 in Vitro” (Frontiers in Pharmacology, 2018)",
  "key": {"[1]": {"target": "T1, MC5R (Homo sapiens, UniProt P33032)", "T1 construct": "expressed in transfected cells; host or cells: HEK-293, pCIneo, transient (FuGene HD)", "T1 sequence (P33032 whole entry)": "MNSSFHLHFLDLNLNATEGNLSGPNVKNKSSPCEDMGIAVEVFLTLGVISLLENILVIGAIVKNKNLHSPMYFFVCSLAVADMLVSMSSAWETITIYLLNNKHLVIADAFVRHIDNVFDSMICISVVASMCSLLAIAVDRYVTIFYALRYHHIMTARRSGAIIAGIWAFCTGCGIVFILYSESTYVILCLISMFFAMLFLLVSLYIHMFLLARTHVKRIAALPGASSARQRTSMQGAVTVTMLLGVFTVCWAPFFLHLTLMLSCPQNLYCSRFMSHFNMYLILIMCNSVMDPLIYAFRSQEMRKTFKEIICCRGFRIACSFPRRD", "test": "Calcium mobilization, HEK-293 transiently expressing MC5R", "assay_type": "cell-based", "conditions": "HEK-293 transient; read-out: Agonist potency (pEC50), MC5R (converted)", "method": "(§1) Human MC3R (NM_019888), MC4R (NM_005912), and MC5R (NM_005913) were transiently expressed in HEK-293 cells with and without human GPR139 (KR081941) or the chimeric G-protein Gα16. All genes were cloned into pCIneo (Promega, Madison, WI, United States, #E1841). HEK-293 cells were cultured in DMEM/F12 (Gibco, Grand Island, NY, United States, #11039-021), 10% FBS (Hyclone, Logan, UT, United States, # SH300700.03), 50 units/ml penicillin and 50 μg/ml streptomycin (Mediatech, Manassas, VA, United States, #30-001-CI). Cells were seeded at 4 × 10^6 cells in 10 cm dishes and allowed to grow overnight at 37°C, 5% CO2. On the day of transfection, culture media was replaced with F12-K (Mediatech, Manassas, VA, United States, #10-025-CV), 10% FBS, 20 mM HEPES (Hyclone, Logan, UT, United States, #SH30237.01) and transfected with 15 μg DNA (10 μg MCR:5 μg pCIneo, 10 μg MCR:5 μg Gα16 or 7.5 μg MCR:7.5 μg GPR139) using FuGene HD (Promega, Madison, WI, United States, #E2311) according to manufacturer’s instructions. MC3R, MC4R, and MC5R were also transiently expressed in the following GPR139 stably expressing cell lines using the FuGENE HD method: HEK-293 GPR139 clone#33, CHO-TREx GPR139 clone#18, and SK-N-MC/CRE TREx GPR139 clone#35. Stable cell lines were established according to method previously described ([Liu et al., 2015]).\n(§2) Intracellular calcium mobilization was measured with the BD calcium kit (BD Bioscience, San Jose, CA, United States). The recombinant cell lines expressing MC3R, MC4R, and MC5R with and without GPR139 or Gα16 were seeded in culture media at a density of 50,000 cells/well into 96-well black/clear-bottom poly-D-lysine treated tissue culture plates. Cells were incubated overnight at 37°C and 5% CO2. Next day, culture media was removed and cells were washed with HBSS prior to dye-loading for 1 h at 37°C and 5% CO2. […] EC50s were calculated by fitting a three-parameter logistic curve using least-squares non-linear regression analysis as implemented in Graphpad Prism 7.0."}, "[2]": {"target": "MC5R + GPR139 (Homo sapiens, UniProt Q6DWJ6)", "sequence (P33032 whole entry partner, one chain of several)": "as the sequence (P33032 whole entry) above", "test": "Calcium mobilization, HEK-293 transiently expressing MC5R + GPR139", "assay_type": "cell-based", "method": "as §1\n(§3) Intracellular calcium mobilization was measured with the BD calcium kit (BD Bioscience, San Jose, CA, United States). The recombinant cell lines expressing MC3R, MC4R, and MC5R with and without GPR139 or Gα16 were seeded in culture media at a density of 50,000 cells/well into 96-well black/clear-bottom poly-D-lysine treated tissue culture plates. Cells were incubated overnight at 37°C and 5% CO2. Next day, culture media was removed and cells were washed with HBSS prior to dye-loading for 1 h at 37°C and 5% CO2. Agonist stimulation and intracellular calcium measurements were done on the FLIPR Tetra (Molecular Devices, Sunnyvale, CA, United States). For receptor inhibition analysis, antagonists (1 μM HS-024 or 10 μM JNJ-3792165) were added off-line 15 min prior to agonist addition on the Tetra. For G-protein inhibitor experiments, cells were treated with 1 μM YM-254890 for 5 min prior to agonist additions on the Tetra. […] Responses in Figure 6 were normalized to its respective agonist response without antagonist. EC50s were calculated by fitting a three-parameter logistic curve using least-squares non-linear regression analysis as implemented in Graphpad Prism 7.0."}, "[3]": {"target": "GPR139 + MC5R (Homo sapiens, UniProt Q6DWJ6)", "sequence (P33032 whole entry partner, one chain of several)": "as the sequence (P33032 whole entry) above", "test": "Calcium mobilization, stable GPR139-HEK-293 cell line transiently expressing MC5R", "assay_type": "cell-based", "method": "as §1, §2"}, "[4]": {"target": "T2, GPR139 (Homo sapiens, UniProt Q6DWJ6)", "T2 sequence (Q6DWJ6 1-353)": "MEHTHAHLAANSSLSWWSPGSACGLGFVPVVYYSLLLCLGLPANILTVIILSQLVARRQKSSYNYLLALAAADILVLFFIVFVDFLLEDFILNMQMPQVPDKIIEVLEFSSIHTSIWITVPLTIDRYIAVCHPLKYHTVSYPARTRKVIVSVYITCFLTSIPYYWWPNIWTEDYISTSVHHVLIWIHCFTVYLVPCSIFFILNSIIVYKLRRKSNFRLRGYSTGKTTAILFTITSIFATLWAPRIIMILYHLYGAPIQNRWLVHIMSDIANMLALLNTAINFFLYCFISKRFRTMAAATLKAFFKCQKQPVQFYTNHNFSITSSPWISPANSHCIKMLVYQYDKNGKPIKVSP", "test": "cAMP assay", "assay_type": "cell-based", "conditions": "unpublished data"}, "[5]": {"target": "T2, GPR139", "test": "[3H]JNJ-63533054 radioligand binding assay, membranes of CHO-TREx cells stably expressing human GPR139", "design": "expressed in transfected cells; host or cells: CHO-TREx GPR139 clone#18", "method": "Reaction was terminated by filtration through GF/C filterplates pre-treated with PEI (polyethyleneimine) followed by washes with ice-cold TE buffer. Filterplates were dried in a 60°C oven followed by addition of Microscint-0. Bound radioactivity was read on a Topcount scintillation counter. […] Half-maximal inhibitory concentrations (IC50s) of test compounds were calculated by fitting a three-parameter logistic curve using least-squares non-linear regression analysis as implemented in Graphpad Prism 7.0. The Top plateau was fixed at 100 and the Bottom was fixed at 0."}, "[6]": {"target": "T2, GPR139", "test": "Calcium mobilization, SK-N-MC/CRE cells stably expressing human GPR139", "assay_type": "cell-based", "design": "expressed in transfected cells; host or cells: CHO-TREx GPR139 clone#18", "method": "as §1, §3"}, "[7]": {"target": "MC4R + Gα16 (Homo sapiens, UniProt P32245)", "sequence (P32245 whole entry)": "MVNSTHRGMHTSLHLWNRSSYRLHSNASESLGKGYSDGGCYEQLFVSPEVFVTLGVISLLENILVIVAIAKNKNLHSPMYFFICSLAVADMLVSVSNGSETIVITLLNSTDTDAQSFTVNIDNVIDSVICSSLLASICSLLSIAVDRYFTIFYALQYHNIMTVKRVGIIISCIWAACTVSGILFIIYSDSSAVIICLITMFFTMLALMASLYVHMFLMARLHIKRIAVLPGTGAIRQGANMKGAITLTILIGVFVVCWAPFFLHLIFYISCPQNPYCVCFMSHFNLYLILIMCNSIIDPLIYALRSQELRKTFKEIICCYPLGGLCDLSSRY", "test": "Calcium mobilization, HEK-293 transiently expressing MC4R + Gα16", "assay_type": "cell-based", "design": "expressed in transfected cells; host or cells: HEK-293, pCIneo, transient (10 μg MCR:5 μg Gα16)", "method": "as §1, §2"}, "[8]": {"conditions": "10 nM radioligand, CHO-TREx GPR139 membranes, read-out: pKi, displacement of [3H]JNJ-63533054 (converted)"}, "[9]": {"conditions": "SK-N-MC/CRE stable GPR139, read-out: pEC50, calcium mobilization (converted)"}, "[10]": {"conditions": "HEK-293 transient, read-out: Agonist potency (pEC50), MC4R + Gα16 (converted)"}},
  "note": "Where two headings read alike, the source gives them in different places.",
  "data": [
    {"smiles": "C[C@H](NC(=O)CNC(=O)c1cccc(Cl)c1)c1ccccc1", "note": "[JNJ-63533054, 3-chloro-N-[2-oxo-2-[[(1S)-1-phenylethyl]amino]ethyl]benzamide]", "values": [
      {"measurement": "EC50", "setting": "[1]", "value": "> 10", "unit": "µM"},
      {"measurement": "EC50", "setting": "[2]", "value": 0.0209, "unit": "µM"},
      {"measurement": "Agonist potency (pEC50), MC5R + GPR139, No antagonist", "setting": "[2]", "value": "7.68 ± 0.08"},
      {"measurement": "Agonist potency (pEC50), stable GPR139-HEK-293 + MC5R", "setting": "[3]", "value": "7.80 ± 0.07"},
      {"measurement": "Response in a cAMP assay", "setting": "[4]", "value": "unable to detect a response"},
      {"measurement": "Ki", "setting": "[5]; [8]", "value": 0.0347, "unit": "µM"},
      {"measurement": "EC50", "setting": "[6]; [9]", "value": 0.0263, "unit": "µM"},
      {"measurement": "EC50", "setting": "[7]; [10]", "value": "> 10", "unit": "µM"}
    ]},
    {"smiles": "N[C@@H](Cc1c[nH]c2ccccc12)C(=O)O", "note": "[L-Trp, L-tryptophan]", "values": [
      {"measurement": "EC50", "setting": "[1]", "value": "> 3160", "unit": "µM"},
      {"measurement": "EC50", "setting": "[2]", "value": 95.5, "unit": "µM"},
      {"measurement": "Agonist potency (pEC50), MC5R + GPR139, No antagonist", "setting": "[2]", "value": "4.02 ± 0.07"},
      {"measurement": "EC50", "setting": "[3]", "value": 162, "unit": "µM"},
      {"measurement": "Response in a cAMP assay", "setting": "[4]", "value": "unable to detect a response"},
      {"measurement": "Ki", "setting": "[5]; [8]", "value": 646, "unit": "µM"},
      {"measurement": "EC50", "setting": "[6]; [9]", "value": 398, "unit": "µM"},
      {"measurement": "EC50", "setting": "[7]; [10]", "value": "> 3160", "unit": "µM"}
    ]},
    {"smiles": "COc1cc(OC)cc(C(=O)NNC(=O)Nc2cccc3ccccc23)c1", "note": "[TC-O9311]", "values": [
      {"measurement": "EC50", "setting": "[1]", "value": "> 10", "unit": "µM"},
      {"measurement": "EC50", "setting": "[2]", "value": 0.0372, "unit": "µM"},
      {"measurement": "Agonist potency (pEC50), MC5R + GPR139, No antagonist", "setting": "[2]", "value": "7.43 ± 0.06"},
      {"measurement": "EC50", "setting": "[3]", "value": 0.0417, "unit": "µM"},
      {"measurement": "Response in a cAMP assay", "setting": "[4]", "value": "unable to detect a response"},
      {"measurement": "Ki", "setting": "[5]", "value": 0.0891, "unit": "µM"},
      {"measurement": "EC50", "setting": "[6]", "value": 0.049, "unit": "µM"},
      {"measurement": "EC50", "setting": "[7]", "value": "> 10", "unit": "µM"}
    ]}
  ]
}
